In US20250145665A1, “MACROCYCLIC PEPTIDES USEFUL AS MODULATORS OF TNF ALPHA” (Bristol-Myers Squibb Company, priority 2023, published 2025):
Where two headings read alike, the source gives them in different places. Starred links: 1 amine or outer side, 2 acyl side, 3 side chain; linkers in the order of their positions; H or OH if unused. Positions of bridges follow the written chain, without caps; N, C: chain ends. Non-standard residues stand in square brackets, D forms with d. Residues, ends and D or L forms follow the SMILES beside them. *: point of attachment. Bip(4'-(3-HOOC-benzamido)) = N[C@@H](Cc1ccc(-c2ccc(NC(=O)c3cccc(C(=O)O)c3)cc2)cc1)C(=O)O; dArg(Nω-CH2C6H4-3-CH2Gua) = N=C(N)NCc1cccc(CNC(=N)NCCC[C@@H](N)C(=O)O)c1; X21 = N=C(NCCC[C@@H](N[*:1])C(=O)[*:2])NC[C@H](O)[C@@H](O)[C@@H](O)CO; Bip(4'-NH) = O=C([C@H](Cc1ccc(-c2ccc(N[*:3])cc2)cc1)N[*:1])[*:2]; Indazole3carbonyl(1-CH2COOH) = O=C(O)Cn1nc(C(=O)*)c2ccccc21; Bip(4'-COOH) = N[C@@H](Cc1ccc(-c2ccc(C(=O)O)cc2)cc1)C(=O)O; Indole3carbonyl(1-CH2COOH) = O=C(O)Cn1cc(C(=O)*)c2ccccc21; X27 = N=C(NCCC[C@@H](N[*:1])C(=O)[*:2])NCCc1ccc2c(c1)OCO2; Ala(morpholin-4-yl) = N[C@@H](CN1CCOCC1)C(=O)O; Benzoyl(3-OCH2COOH) = O=C(O)COc1cccc(C(=O)*)c1; Bip = N[C@@H](Cc1ccc(-c2ccccc2)cc1)C(=O)O; Phe(2-F) = N[C@@H](Cc1ccccc1F)C(=O)O; 2Pal = N[C@@H](Cc1ccccn1)C(=O)O; Tic = O=C(O)[C@@H]1Cc2ccccc2CN1; 2Thi = N[C@@H](Cc1cccs1)C(=O)O; Cha = N[C@@H](CC1CCCCC1)C(=O)O; Chg = N[C@H](C(=O)O)C1CCCCC1; Tle = CC(C)(C)[C@H](N)C(=O)O; Sar = CNCC(=O)O

Target: TNFα (Homo sapiens, UniProt P01375)
Sequence (P01375 77-233 limits assumed): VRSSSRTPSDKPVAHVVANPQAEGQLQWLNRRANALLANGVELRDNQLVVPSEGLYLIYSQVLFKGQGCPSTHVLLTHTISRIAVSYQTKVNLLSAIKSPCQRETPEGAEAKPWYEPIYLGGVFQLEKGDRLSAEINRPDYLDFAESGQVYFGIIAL
Assay: TNF-Induced HEK-Blue Assay
Format: cell-based
[1] = HEK-Blue-CD40L cells, NF-kB-driven secreted alkaline phosphatase reporter, TNFα 0.5 ng/ml, 18 h, read-out: TNF induced HEK-Blue assay IC50 value

IC50 [1] [nM]	SMILES	IC50 [nM]
200 to 2000	CC(C)C[C@@H]1NC(=O)[C@H](CCCNC(=N)N)NC(=O)[C@H](C(C)C)NC(=O)[C@@H]2CCCN2C(=O)[C@H](C(C)C)NC(=O)[C@H](CCCNC(=N)N)NC(=O)[C@H](CC(=O)O)NC(=O)[C@@H]2CCCN2C(=O)CN(C)C(=O)[C@H](Cc2ccc(-c3ccccc3)cc2)NC(=O)[C@H](Cc2ccc(-c3ccccc3)cc2)NC(=O)[C@H](CCCCN)NC(=O)CSC[C@@H](C(=O)NCC(N)=O)NC1=O [Example 6] ({CH2CO}-K[Bip][Bip][Sar]PDRVPVRLCG-NH2; thioether N-13)	–
< 50	CC[C@H](C)[C@@H]1NC(=O)[C@@H](CCCNC(=N)N)NC(=O)[C@H](CC(=O)O)NC(=O)[C@@H]2CCCN2C(=O)CN(C)C(=O)[C@H](Cc2ccc(-c3ccc(NC(=O)c4cccc(OCC(=O)O)c4)cc3)cc2)NC(=O)[C@H](Cc2ccc(-c3ccc(C(=O)O)cc3)cc2)NC(=O)[C@H](C(C)(C)C)NC(=O)CSC[C@@H](C(=O)NCC(N)=O)NC(=O)[C@H](CC(C)C)NC(=O)[C@H](Cc2cnc[nH]2)NC(=O)[C@H](C(C)C)NC(=O)[C@@H]2CCCN2C1=O [Example 574] ({CH2CO}-[Tle][Bip(4'-COOH)][Bip(4'-NH)](Benzoyl(3-OCH2COOH))[Sar]PD[dR]IPVHLCG-NH2; thioether N-13)	–
200 to 2000	CC(C)C[C@@H]1NC(=O)[C@H](CCCNC(=N)N)NC(=O)[C@H](C(C)C)NC(=O)[C@@H]2CCCN2C(=O)[C@H](Cc2ccccc2F)NC(=O)[C@H](CCCNC(=N)N)NC(=O)[C@H](CC(=O)O)NC(=O)[C@@H]2CCCN2C(=O)CN(C)C(=O)[C@H](Cc2ccc(-c3ccccc3)cc2)NC(=O)[C@H](Cc2ccc(-c3ccccc3)cc2)NC(=O)[C@H](CN2CCOCC2)NC(=O)CSC[C@@H](C(=O)NCC(N)=O)NC1=O [Example 53] ({CH2CO}-[Ala(morpholin-4-yl)][Bip][Bip][Sar]PDR[Phe(2-F)]PVRLCG-NH2; thioether N-13)	–

The next lines start with the molecule.

SMILES	IC50 [1] [nM]	IC50 [nM]
CC(C)C[C@@H]1NC(=O)[C@H](Cc2cccs2)NC(=O)[C@H](C(C)C)NC(=O)[C@@H]2CCCN2C(=O)[C@H](C(C)C)NC(=O)[C@@H](CCCNC(=N)NC[C@H](O)[C@@H](O)[C@@H](O)CO)NC(=O)[C@H](CC(=O)O)NC(=O)[C@H](Cc2ccccn2)NC(=O)CN(C)C(=O)[C@H](Cc2ccc(-c3ccc(NC(=O)c4nn(CC(=O)O)c5ccccc45)cc3)cc2)NC(=O)[C@H](Cc2ccc(-c3ccccc3)cc2)NC(=O)[C@H](CN2CCOCC2)NC(=O)CSC[C@@H](C(=O)NCC(N)=O)NC1=O [Example 640] ({CH2CO}-[Ala(morpholin-4-yl)][Bip][Bip(4'-NH)](Indazole3carbonyl(1-CH2COOH))[Sar][2Pal]D[X21]VPV[2Thi]LCG-NH2; thioether N-13)	–	50 to 200
CC(C)C[C@@H]1NC(=O)[C@H](CCCNC(=N)N)NC(=O)[C@H](C(C)C)NC(=O)[C@@H]2CCCN2C(=O)[C@H](C(C)C)NC(=O)[C@@H](CCCNC(=N)NCc2cccc(CNC(=N)N)c2)NC(=O)[C@H](CC(=O)O)NC(=O)[C@@H]2CCCN2C(=O)CN(C)C(=O)[C@H](Cc2ccc(-c3ccc(NC(=O)c4cn(CC(=O)O)c5ccccc45)cc3)cc2)NC(=O)[C@H](Cc2ccc(-c3ccccc3)cc2)NC(=O)[C@H](CN2CCOCC2)NC(=O)CSC[C@@H](C(=O)NCC(N)=O)NC1=O [Example 569] ({CH2CO}-[Ala(morpholin-4-yl)][Bip][Bip(4'-NH)](Indole3carbonyl(1-CH2COOH))[Sar]PD[dArg(Nω-CH2C6H4-3-CH2Gua)]VPVRLCG-NH2; thioether N-13)	–	< 50
CC(C)C[C@@H]1NC(=O)[C@H](Cc2c[nH]cn2)NC(=O)[C@H](C2CCCCC2)NC(=O)[C@@H]2CCCN2C(=O)[C@H](C(C)C)NC(=O)[C@@H](CCCNC(=N)N)NC(=O)[C@H](CC(=O)O)NC(=O)[C@H](Cc2cnc[nH]2)NC(=O)CN(C)C(=O)[C@H](Cc2ccc(-c3ccc(NC(=O)c4cccc(C(=O)O)c4)cc3)cc2)NC(=O)[C@H](Cc2ccc(-c3ccccc3)cc2)NC(=O)[C@H](CC2CCCCC2)NC(=O)CSC[C@@H](C(=O)NCC(N)=O)NC1=O [Example 514] ({CH2CO}-[Cha][Bip][Bip(4'-(3-HOOC-benzamido))][Sar]HD[dR]VP[Chg]HLCG-NH2; thioether N-13)	< 50	–
CC(C)C[C@@H]1NC(=O)[C@H](Cc2ccc(O)cc2)NC(=O)[C@H](C(C)C)NC(=O)[C@@H]2Cc3ccccc3CN2C(=O)[C@H](C(C)C)NC(=O)[C@H](CCCNC(=N)N)NC(=O)[C@H](CC(=O)O)NC(=O)[C@H](Cc2ccc(O)cc2)NC(=O)CN(C)C(=O)[C@H](Cc2ccc(-c3ccccc3)cc2)NC(=O)[C@H](Cc2ccc(-c3ccccc3)cc2)NC(=O)[C@H](CN2CCOCC2)NC(=O)CSC[C@@H](C(=O)NCC(N)=O)NC1=O [Example 74] ({CH2CO}-[Ala(morpholin-4-yl)][Bip][Bip][Sar]YDRV[Tic]VYLCG-NH2; thioether N-13)	200 to 2000	–
CC(C)C[C@@H]1NC(=O)[C@H](CCCNC(=N)N)NC(=O)[C@H](C(C)C)NC(=O)[C@@H]2CCCN2C(=O)[C@H](C(C)C)NC(=O)[C@@H](CCCNC(=N)NCCc2ccc3c(c2)OCO3)NC(=O)[C@H](CC(=O)O)NC(=O)[C@@H]2CCCN2C(=O)CN(C)C(=O)[C@H](Cc2ccc(-c3ccc(NC(=O)c4nn(CC(=O)O)c5ccccc45)cc3)cc2)NC(=O)[C@H](Cc2ccc(-c3ccc(C(=O)O)cc3)cc2)NC(=O)[C@H](CN2CCOCC2)NC(=O)CSC[C@@H](C(=O)NCC(N)=O)NC1=O [Example 409] ({CH2CO}-[Ala(morpholin-4-yl)][Bip(4'-COOH)][Bip(4'-NH)](Indazole3carbonyl(1-CH2COOH))[Sar]PD[X27]VPVRLCG-NH2; thioether N-13)	–	50 to 200
